Laboratory results published in patent publication US20240139162A1, “Benzophenanthridine Alkaloids and Their Methods of Use” (Chengdu Anticancer Bioscience, LTD., priority 2019, published 2024).
“Also recorded” adds a separate entry of the source.

Legend:
IMR 90 cells = assay: IC50 in IMR 90 cells (Table 2); format: cell-based; conditions: Homo sapiens, IMR-90, 72 h, IMR 90, treatment 72 h; read-out: IC50
Protocol: (§1) Cells were split, plated in appropriate culture media and allowed to adhere. After 18 hours, corynoline and acetylcorynoline were added to a cell line selected from below. At 72 h or 96 h, MTT was added and at 75 h or 99 h, the A570 nm was recorded. The concentration ranged from 0.02 μM to 40 μM.
(§2) The effect of the compounds chelidonine and protopine on cell division was assessed similarly to corynoline and acetylcorynoline above. As described in Example 6 above, as cells enter and become arrested in mitosis, they detach from the plate surface and appear as rounded cells with a smooth surface membrane. RPE-MBC cells (ectopically expressing oncogenes MYC and Bcl2) were treated with DMSO, chelidonine and protopine, and compared against controls Michael's ketone (MK) and taxol.

RPE-MBC cells = assay: Mitotic arrest (cell round-up, phospho-Histone H3) and polyploidy (DAPI) assay; format: cell-based, human
Protocol: For screening for bioactive fractions, cells were cultured in 96-well plates, and exposed to crude extracts, partially purified fractions or pure compounds at the concentrations indicated in the figure legends. Exposure was for 24 or 48 hours before analysis of cells for either an arrest in mitosis using an inverted microscope or for a change in DNA content after 4′,6′-diamidino-2-phenylindole (DAPI) staining by fluorescence microscopy.
(§3) Cells were cultured on coverslips in a 6-well plate, fixed with 4% paraformaldehyde and then permeabilized with 0.3% Triton X-100 in PBS. Primary antibody was detected with Texas-Red-conjugated secondary antibodies that were purchased from Jackson ImmunoResearch. After immunostaining, cells were mounted on microscope slides with 4′,6′-diamidino-2-phenylindole (DAPI)-containing Vectashield mounting solution (Vector Laboratories) for detection of fluorescence with an EVOS FL fluorescence microscope (ThermoFisher).
Cellular “round-up” was used as a surrogate marker for mitotic arrest and could easily be assayed using an inverted tissue culture microscope. […] Mitotic arrest was judged by cell round-up observed under an inverted tissue culture microscope 24 hours after exposing cells to the library.
As cells enter and become arrested in mitosis, they detach from the plate surface and appear as rounded cells with smooth surface membrane, distinct from detached cells that are undergoing programmed cell death. Simple visual screening method was used to assay thousands of extracts. […] To identify bioactive components that are able to interfere with mitosis, 3 kg of Corydalis longicalcarata rhizome were recollected and performed bioactivity-guided extraction, isolation, and purification. The air dried and powdered material was extracted with 70% ethanol assisted by exposure to ultrasonic waves.

Rat1A cells = assay: IC50 in Rat1A cells (Table 2); format: cell-based; conditions: 72 h, Rat1A, treatment 72 h; read-out: IC50
Protocol: as §1
The following Rat1A cell lines were used in these studies: Rat1 A C, Rat1A MYC, Rat1A E2F1, and Rat1A E2F3. The cell line was then engineered as control (C), to overexpress the MYC oncogene (Rat1A-MYC), to overexpress the E2F1 oncogene (Rat1A-E2F1), or to overexpress the E2F3 oncogene (Rat1A-E2F3).
as §2

aurora-B kinase = assay: Phosphorylation of Histone 3 at Ser10 as surrogate of aurora-B kinase activity; format: cell-based
Protocol: as §3

Question: Which IC50 (IMR 90 cells) does the source give for CC(=O)O[C@H]1Cc2cc3c(cc2[C@H]2N(C)Cc4c(ccc5c4OCO5)[C@@]12C)OCO3 [Acetylcorynoline, (5bR,6S,12bR)-5b,6,7,12b,13,14-Hexahydro-5b,13-dimethyl-[1,3]benzodioxolo[5,6-c]-1,3-dioxolo[4,5-i]phenanthridin-6-ol 6-acetate] here?
Answer: > 40 µM

Question: And the “polyploidy compared to DMSO control” value (RPE-MBC cells; 10 μM and 20 μM, 48 hours)?
Answer: polyploidy was induced

Question: And the mitotic arrest (RPE-MBC cells; 24 hours after treatment)?
Answer: can arrest mitosis within 24 hours of treatment; also recorded: Nearly all cells entered and arrested in mitosis

Question: What about the “polyploidy (DAPI staining)” value (RPE-MBC cells; 48 hours after treatment) of the same compound?
Answer: induce polyploidy at 48 hours; also recorded: induced polyploidy; also recorded: Polyploidy was observed; also recorded: demonstrates polyploidy

Question: And the “minimal effective concentration for mitotic arrest and polyploidy relative to corynoline” value (RPE-MBC cells; FIG. 15)?
Answer: 2 fold

Question: What about the “mitotic arrest and polyploidy, dependence on concentration” value (RPE-MBC cells; FIG. 15) of the same compound?
Answer: concentration-dependent

Question: What about the “persistence of the arrest of cells in mitosis” value (RPE-MBC cells; within 48-hour treatment) of the same compound?
Answer: transient

Question: And the IC50 (Rat1A cells)?
Answer: 27.4 µM

Question: And the “phosphorylation of Histone 3 at Ser10” value (aurora-B kinase)?
Answer: not affected
